Data as given in patent US11208387B2, “Macrocyclic broad spectrum antibiotics” (Genentech, Inc., priority 2019, dated 2021).
Values after ≈ are worked out from the molar mass of the structure shown. Like-named read-outs stand apart in the source and are kept apart here.

What was measured:
Experiment in all cases: Serum MIC, broth micro-dilution
Type in all cases: cell-based
[1] = test system: Pseudomonas aeruginosa PA01; conditions: Pseudomonas aeruginosa, PA01; 50% v/v mouse serum in Mueller Hinton II cation adjusted Broth, 35° C., 22 hours; Table 4; read-out: P. aeruginosa 01 Serum MIC
Outline: (§1)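 MIC read after 22 h at 35° C by CLSI broth micro-dilution, with medium containing 50% v/v mouse serum in cation-adjusted Mueller Hinton II broth. Ten 2-fold compound concentrations were tested, starting at 64, 4, 0.5 or 0.13 μg/mL.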

[2] = test system: Escherichia coli strain ATCC 25922; conditions: Escherichia coli, ATCC25922; 50% v/v mouse serum in Mueller Hinton II cation adjusted Broth, 35° C., 22 hours; Table 4; read-out: E. coli 25922 Serum MIC
Outline: as §1

[3] = test system: Acinetobacter baumannii ATCC 17978; conditions: Acinetobacter baumannii, ATCC17978, 50% v/v mouse serum in Mueller Hinton II cation adjusted Broth, 35° C., 22 hours
Outline: as §1

[4] = test system: Klebsiella pneumoniae ATCC 700603; conditions: Klebsiella pneumoniae, ATCC700603; 50% v/v mouse serum in Mueller Hinton II cation adjusted Broth, 35° C., 22 hours; Table 4; read-out: K pneumoniae 700603 Serum MIC
Outline: as §1

[5] = Table 4, read-out: A. baumanii 17978 Serum MIC
[6] = Table 5, read-out: Acinetobacter baumanii 17978 Serum MIC

Structure (SMILES) | MIC [1] [µM] | MIC [2] [µM] | MIC [3, 5] [µM] | MIC [3, 6] [µM] | MIC [4] [µM]
C[C@@H]1NC(=O)[C@@H](N(C)C(=O)[C@H](CNS(N)(=O)=O)NC(=O)c2cnc(-c3ccc(C(C)(C)C)cc3)nc2N)c2cc(OC[C@H](O)CN)c(O)c(c2)-c2cc(ccc2OC[C@H](O)CN)C[C@@H](C(=O)O)NC1=O [Example 46, (8S,11S,14S)-14-[[(2S)-2-[[4-amino-2-(4-tert-butylphenyl)-pyrimidine-5-carbonyl]amino]-3-(sulfamoylamino)-propanoyl]-methyl-amino]-3,17-bis[(2R)-3-amino-2-hydroxy-propoxy]-18-hydroxy-11-methyl-10,13-dioxo-9,12-diazatricyclo-[13.3.1.12,6]icosa-1(18),2(20),3,5,15(19), 16-hexaene-8-carboxylic acid] | 16 (≈ 15.9 µg/mL) | 0.5 (≈ 0.497 µg/mL) | 8 (≈ 7.95 µg/mL) | 8 (≈ 7.95 µg/mL) | 0.5 (≈ 0.497 µg/mL)
Cc1nc(-c2ccc3c(c2)CCC3(C)C)nc(N)c1C(=O)N[C@@H](CCN)C(=O)N(C)[C@@H]1C(=O)N[C@@H](C)C(=O)N[C@H](C(=O)O)Cc2ccc(OC[C@H](O)CN)c(c2)-c2cc1cc(OC[C@H](O)CN)c2O [Example 47, (8S,11S,14S)-18-hydroxy-11-methyl-14-[methyl-[(2S)-4-amino-2-[[4-amino-2-(1,1-dimethylindan-5-yl)-6-methyl-pyrimidine-5-carbonyl]amino]-butanoyl]amino]-10,13-dioxo-3,17-bis[(2R)-3-amino-2-hydroxy-propoxy]-9,12-diazatricyclo-[13.3.1.12,6]icosa-1(18),2(20),3,5,15(19), 16-hexaene-8-carboxylic acid] | 16 (≈ 15.3 µg/mL) | 0.25 (≈ 0.239 µg/mL) | 16 (≈ 15.3 µg/mL) | 16 (≈ 15.3 µg/mL) | 0.25 (≈ 0.239 µg/mL)
Cc1cc(C(C)(C)C)cc(O)c1-c1nc(C)c(C(=O)N[C@@H](CNS(N)(=O)=O)C(=O)N(C)[C@@H]2C(=O)N[C@@H](C)C(=O)N[C@H](C(=O)O)Cc3ccc(OC[C@H](O)CN)c(c3)-c3cc2cc(OC[C@H](O)CN)c3O)c(N)n1 [Example 48, (8S,11S,14S)-14-[[(2S)-2-[[4-amino-2-(4-tert-butyl-2-hydroxy-6-methyl-phenyl)-6-methyl-pyrimidine-5-carbonyl]amino]-3-(sulfamoylamino)-propanoyl]-methyl-amino]-3,17-bis[(2R)-3-amino-2-hydroxy-propoxy]-18-hydroxy-11-methyl-10,13-dioxo-9,12-diazatri-cyclo[13.3.1.12,6]icosa-1(18),2(20),3,5,15(19), 16-hexaene-8-carboxylic acid] | 3 (≈ 3.11 µg/mL) | 0.75 (≈ 0.779 µg/mL) | 16 (≈ 16.6 µg/mL) | 16 (≈ 16.6 µg/mL) | 1 (≈ 1.04 µg/mL)
Cc1cc(-c2ccc(C(C)(C)C)cc2)nc(N)c1C(=O)N[C@@H](CNS(N)(=O)=O)C(=O)N(C)[C@@H]1C(=O)N[C@@H](C)C(=O)N[C@H](C(=O)O)Cc2ccc(OC[C@H](O)CN)c(c2)-c2cc1cc(OC[C@H](O)CN)c2O [Example 49, (8S,11S,14S)-14-[[(2S)-2-[[2-amino-6-(4-tert-butylphenyl)-4-methyl-pyridine-3-carbonyl]amino]-3-(sulfamoylamino)-propanoyl]-methyl-amino]-3,17-bis[(2R)-3-amino-2-hydroxy-propoxy]-18-hydroxy-11-methyl-10,13-dioxo-9,12-diazatri-cyclo[13.3.1.12,6]icosa-1(18),2(20),3,5,15(19), 16-hexaene-8-carboxylic acid] | 8 (≈ 8.06 µg/mL) | 0.5 (≈ 0.504 µg/mL) | 16 (≈ 16.1 µg/mL) | 16 (≈ 16.1 µg/mL) | 1 (≈ 1.01 µg/mL)
C[C@@H]1NC(=O)[C@@H](N(C)C(=O)[C@H](CCN)NC(=O)c2c(N)cc(-c3ccc(C(C)(C)C)cc3)nc2Cl)c2cc(OC[C@H](O)CN)c(O)c(c2)-c2cc(ccc2OC[C@H](O)CN)C[C@@H](C(=O)O)NC1=O [Example 51, (8S,11S,14S)-18-hydroxy-11-methyl-14-[methyl-[(2S)-4-amino-2-[[4-amino-6-(4-tert-butylphenyl)-2-chloro-pyridine-3-carbonyl]amino]-butanoyl]amino]-10,13-dioxo-3,17-bis[(2R)-3-amino-2-hydroxy-propoxy]-9,12-diazatricyclo-[13.3.1.12,6]icosa-1(18),2(20),3,5,15(19), 16-hexaene-8-carboxylic acid] | 8 (≈ 7.7 µg/mL) | 0.19 (≈ 0.183 µg/mL) | 8 (≈ 7.7 µg/mL) | 8 (≈ 7.7 µg/mL) | 0.13 (≈ 0.125 µg/mL)
Cc1nc(-c2c(O)cc3c(c2O)CCC3(C)C)nc(N)c1C(=O)N[C@@H](CNS(N)(=O)=O)C(=O)N(C)[C@@H]1C(=O)N[C@@H](C)C(=O)N[C@H](C(=O)O)Cc2ccc(OC[C@H](O)CN)c(c2)-c2cc1cc(OC[C@H](O)CN)c2O [Example 52, (8S,11S,14S)-18-hydroxy-11-methyl-14-[methyl-[(2S)-2-[[4-amino-2-(4,6-dihydroxy-1,1-dimethyl-indan-5-yl)-6-methyl-pyrimidine-5-carbonyl]amino]-3-(sulfamoylamino)-propanoyl]amino]-10,13-dioxo-3,17-bis[(2R)-3-amino-2-hydroxy-propoxy]-9,12-diazatricyclo-[13.3.1.12,6]icosa-1(18),2(20),3,5,15(19), 16-hexaene-8-carboxylic acid] | 8 (≈ 8.42 µg/mL) | 0.5 (≈ 0.526 µg/mL) | 16 (≈ 16.8 µg/mL) | 16 (≈ 16.8 µg/mL) | 1 (≈ 1.05 µg/mL)
C[C@@H]1NC(=O)[C@@H](N(C)C(=O)[C@H](CNS(N)(=O)=O)NC(=O)c2c(N)nc(-c3ccc(C(C)(C)C)cc3)nc2Cl)c2cc(OC[C@H](O)CN)c(O)c(c2)-c2cc(ccc2OC[C@H](O)CN)C[C@@H](C(=O)O)NC1=O [Example 53, (8S,11S,14S)-14-[[(2S)-2-[[4-amino-2-(4-tert-butylphenyl)-6-chloro-pyrimidine-5-carbonyl]amino]-3-(sulfamoylamino)-propanoyl]-methyl-amino]-3,17-bis[(2R)-3-amino-2-hydroxy-propoxy]-18-hydroxy-11-methyl-10,13-dioxo-9,12-diazatri-cyclo[13.3.1.12,6]icosa-1(18),2(20),3,5,15(19), 16-hexaene-8-carboxylic acid] | 3 (≈ 3.09 µg/mL) | 0.38 (≈ 0.391 µg/mL) | 6 (≈ 6.17 µg/mL) | 6 (≈ 6.17 µg/mL) | 0.5 (≈ 0.514 µg/mL)
Cc1nc(-c2ccc(OCCC(C)(C)C)nc2)nc(N)c1C(=O)N[C@@H](CNS(N)(=O)=O)C(=O)N(C)[C@@H]1C(=O)N[C@@H](C)C(=O)N[C@H](C(=O)O)Cc2ccc(OC[C@H](O)CN)c(c2)-c2cc1cc(OC[C@H](O)CN)c2O [Example 54, (8S,11S,14S)-14-[[(2S)-2-[[4-amino-2-[6-(3,3-dimethyl-butoxy)-3-pyridyl]-6-methyl-pyrimidine-5-carbonyl]amino]-3-(sulfamoylamino)-propanoyl]-methyl-amino]-3,17-bis[(2R)-3-amino-2-hydroxy-propoxy]-18-hydroxy-11-methyl-10,13-dioxo-9,12-diazatri-cyclo[13.3.1.12,6]icosa-1(18),2(20),3,5,15(19), 16-hexaene-8-carboxylic acid] | 4 (≈ 4.21 µg/mL) | 0.38 (≈ 0.4 µg/mL) | 8 (≈ 8.43 µg/mL) | 8 (≈ 8.43 µg/mL) | 0.5 (≈ 0.527 µg/mL)
C[C@@H]1NC(=O)[C@@H](N(C)C(=O)[C@H](CCN)NC(=O)c2c(N)nc(-c3ccc(C(C)(C)C)cc3)nc2Cl)c2cc(OC[C@H](O)CN)c(O)c(c2)-c2cc(ccc2OC[C@H](O)CN)C[C@@H](C(=O)O)NC1=O [Example 55, (8S,11S,14S)-18-hydroxy-11-methyl-14-[methyl-[(2S)-4-amino-2-[[4-amino-2-(4-tert-butylphenyl)-6-chloro-pyrimidine-5-carbonyl]amino]-butanoyl]amino]-10,13-dioxo-3,17-bis[(2R)-3-amino-2-hydroxy-propoxy]-9,12-diazatricyclo-[13.3.1.12,6]icosa-1(18),2(20),3,5,15(19), 16-hexaene-8-carboxylic acid] | 6 (≈ 5.78 µg/mL) | 0.19 (≈ 0.183 µg/mL) | 6 (≈ 5.78 µg/mL) | 6 (≈ 5.78 µg/mL) | 0.19 (≈ 0.183 µg/mL)
CNc1nc(-c2ccc(C(C)(C)C)cc2)nc(C)c1C(=O)N[C@@H](CNS(N)(=O)=O)C(=O)N(C)[C@@H]1C(=O)N[C@@H](C)C(=O)N[C@H](C(=O)O)Cc2ccc(OC[C@H](O)CN)c(c2)-c2cc1cc(OC[C@H](O)CN)c2O [Example 56, (8S,11S,14S)-3,17-bis[(2R)-3-amino-2-hydroxy-propoxy]-14-[[(2S)-2-[[2-(4-tert-butylphenyl)-4-methyl-6-(methyl-amino)pyrimidine-5-carbonyl]amino]-3-(sulfamoylamino)-propanoyl]-methyl-amino]-18-hydroxy-11-methyl-10,13-dioxo-9,12-diazatri-cyclo[13.3.1.12,6]icosa-1(18),2(20),3,5,15(19), 16-hexaene-8-carboxylic acid] | 3 (≈ 3.07 µg/mL) | 0.25 (≈ 0.256 µg/mL) | 6 (≈ 6.13 µg/mL) | 6 (≈ 6.13 µg/mL) | 0.5 (≈ 0.511 µg/mL)
